# Measured values published in US20100075364A1, “METHOD FOR SELECTING MAMMAL TRANSFORMED CELLS” (FOOD AND DRUG SAFETY CENTER, priority 2008, published 2010).
# Assays:
# Bhas 42 cells [1] = experiment: Selection of Bhas 42 transformed cells by BP treatment and light irradiation; format: cell-based, mouse; conditions: BP 20 ng/mL + light irradiation 2 J/cm^2 (UVA), observed 24 hours later
# Experimental: Whether or not transformed cells can be selected using active oxygens other than hydrogen peroxide was analyzed. Since such active oxygens other than hydrogen peroxide are extremely unstable and have a short life time, they cannot be used as reagents. Accordingly, benzo(a)pyrene (BP) for generating superoxide anion radical as a result of light irradiation was utilized. Transformed foci were induced in Bhas 42 cells (by the method of Example 1), and the medium was then exchanged with a phosphate buffered saline (2 mL/well). […] Using a sunlight simulator, light was applied to the cells (300 to 800 nm; UVA irradiation intensity: 5.6 mW/cm^2; irradiation time: 6 minutes; irradiation dose: 2 J/cm^2), and the medium was then exchanged. Twenty-four hours later, the resultant cells were observed.
# Bhas 42 cells [2] = experiment: Bhas 42 cell transformation test with MCA, hydrogen peroxide method with dye and Giemsa staining; format: cell-based, mouse; conditions: MCA 0.1, 0.3, 1 μg/mL for 3 days; 0.0015% hydrogen peroxide day 21, alamarBlue or WST-8
# Experimental: A basic experiment was carried out as follows. In a Bhas 42 cell transformation test using a 96-well plate (0.1 mL of medium/well), 0.05 mL of a medium containing hydrogen peroxide (in a concentration 3 times higher than the final concentration) was added on the 21st day after cell inoculation. 1 to 24 hours later, 0.05 mL of a medium containing alamarBlue or WST-8 (0.01 mL of dye+0.04 mL of medium) was added.
# Whether or not the transformation of Bhas 42 cells could be quantified with a dye was analyzed using MCA. The cells were inoculated (200 cells/0.05 mL of medium/well), and on the following day, 0.05 mL of a medium containing MCA (0.2, 0.6, and 2 μg/mL: all of which were 2 times higher than the final concentrations that were 0.1, 0.3, and 1 μg/mL, respectively) was added thereto. The cells were treated for 3 days, and a medium containing hydrogen peroxide (0.0045%: 3 times higher than the final concentration that was 0.0015%) was added thereto on the 21st day after cell inoculation. 24 hours later, a dye was added, and measurement was then carried out. Thereafter, 0.02 mL of glutaraldehyde (2.5%: approximately 10 times higher than the final concentration that was 0.25%) was further added, and the resultant cells were then left for 30 minutes or more for fixation. Thereafter, the cells were washed with water and were then subjected to Giemsa staining.
# Bhas 42 cells [3] = conditions: 0.0015% final, 24 hours
# Experimental: In order to observe the morphology of a transformed focus and the morphology of normal cells existing around the transformed focus before and after a treatment with hydrogen peroxide, the following experiment was carried out using 3-methylcholanthrene (MCA) as an initiator. […] Thereafter, 0.2 mL of a medium containing hydrogen peroxide (0.0165%: 11 times higher than the final concentration that was 0.0015%) was added, and the transformed focus was then observed 24 hours after the addition of hydrogen peroxide.
# [4] = system: Hu-MI cells and human cancer cells (A549, FLC-5, HCT 116, MKN28); conditions: 0.003% final, 24 hours, day 14
# Experimental: Whether or not human transformed cells can also be selected by treatment with hydrogen peroxide was analyzed. […] An experimental system was prepared, such that a large number of Hu-MI cells and a small number of human cancer cells (A549 cells: lung cancer; FLC-5 cells: liver cancer; HCT 116 cells: colon cancer; and MKN28 cells: stomach cancer) were simultaneously inoculated and such that they were co-cultured.
# The Hu-MI cells (10^4 cells/well) and various types of cancer cells (500 cells/well for FLC-5 cells; and 100 cells/well for other cells) were each inoculated on a 6-well plate (2 mL of medium/well). On the 14th day after the inoculation, 0.2 mL of medium containing hydrogen peroxide (0.033%: 11 times higher than the final concentration that was 0.003%) was added thereto, and the cells were then observed 24 hours after the addition of hydrogen peroxide. As a medium, MEM+10% fetal bovine serum was used.
# Bhas 42 cells [5] = conditions: depending on concentration and treatment time (1 to 24 hours)
# Experimental: 1 to 24 hours later, 0.05 mL of a medium containing alamarBlue or WST-8 (0.01 mL of dye+0.04 mL of medium) was added. Three hours after the addition of the aforementioned medium, a fluorescence level (excitation: 530 nm; measurement: 590 nm) or absorbance (450 nm) was measured (FIG. 2).
# In order to find conditions under which normal cells are killed but transformed cells survive, an experiment was carried out to obtain an appropriate concentration of hydrogen peroxide and an appropriate treatment time.
# mouse lung tumor cells = conditions: 0.015% final, 24 hours, lung tumor slices
# Experimental: Whether or not the transformed cells can be selected even in vivo was analyzed. The following experiment was carried out using rasH2 mice (human c-Ha-ras gene-introduced mice; female; 6-week-old). N-ethyl-N-nitrosourea used as an initiator was intraperitoneally administered to each mouse (120 mg/kg/10 mL of physiological saline). From 1 week after the administration of N-ethyl-N-nirosourea, butylhydroxytoluene used as a promoter was orally administered once a week, repeatedly for 7 weeks (400 mg/kg/10 mL of corn oil). Thereafter, the mouse was further bred for 2 weeks. […] The medium was left at rest in a CO2 incubator (5% CO2, 37° C.) for 24 hours, and the sample was then stained with a trypan blue solution (prepared by adding 0.002% trypan blue to phosphate buffered saline) for 10 minutes. It is to be noted that trypan blue is not incorporated into living cells but is incorporated into dead cells, and that it stains the cells blue.
smiles,measurement,setting,value
"c1ccc2c(c1)cc1ccc3cccc4ccc2c1c34 [BP, benzo(a)pyrene]",selection of the transformed cells,Bhas 42 cells [1],observed only in the case of a BP treatment+light irradiation group
"Cc1ccc2cc3c(ccc4ccccc43)c3c2c1CC3 [MCA, 3-methylcholanthrene]",transformed foci and fluorescence level or absorbance,Bhas 42 cells [2],increased depending on the dosage
OO [hydrogen peroxide],morphology of normal cells around the transformed focus after addition of hydrogen peroxide,Bhas 42 cells [3]; day 21,cytoplasm was denatured
same,morphology of the transformed focus after addition of hydrogen peroxide,"Bhas 42 cells [3]; day 21, foci induced by 1 μg/mL MCA",not changed
same,fate of Hu-MI cells (considered normal cells),[4],died and were thereby removed
same,"fate of human cancer cells (A549, FLC-5, HCT 116, MKN28)",[4],remained in the state of colonies and survived
same,"effect on normal cells versus transformed focus wells, absorbance of WST-8 as indicator",Bhas 42 cells [5],specifically destroys normal cells
same,trypan blue staining (dead cells) of tumor and non-tumor portion,mouse lung tumor cells,only the non-tumor portion was stained blue
